Assay results: patent US4180672A, “2-Organothio-2-cyclopentenones, organothio-cyclopentanes derived therefrom” (Teijin Limited, priority 1976, dated 1979)
Read-outs that look alike come from different tables or passages of the source.

What was measured:
[1] = test system: formation of ulcer in rats induced by indomethacin; assay: inhibiting action on formation of ulcer in rats induced by indomethacin (peroral); format: in vivo, rats (Sprague Dawley); settings: for Ulcer formation (ulcer coefficient) Average value ± S.E.M.: 7 rats
Experimental: By the method of Y. H. Lee et al. [Arch. Int. Pharmacodyn. Ther., 192, 370 (1971)], the inhibiting action of dl-11-deoxy-15-methyl-7-thia-PGE1 methyl ester (a compound of formula II) on the formation of ulcer in rats induced by indomethacin, a typical non-steroid anti-inflammatory agent, was evaluated.
Male rats (Sprague Dawley species; body weight 300 g) were used in the experiment. These rats had been caused to fast for 24 hours in separate cages before the initiation of the experiment. Indomethacin was orally administered to these rats, and 6 hours later, they were killed. Formation of ulcer in the fundus part was examined by measuring the area of the ulcer-forming part under microscope. The dl-11-deoxy-15-methyl-7-thia-PGE1 methyl ester was orally administered at the end of 30 minutes and 3 hours, respectively, after the administration of indomethacin. The ulcer formation inhibiting rate of the dl-11-deoxy-15-methyl-7-thia-PGE1 methyl ester against a predetermined dose of indomethacin was determined.
The indomethacin was administered as a 0.5 ml aqueous suspension (containing two drops of a Tween-type nonionic surfactant per 14 ml of water). The dl-11-deoxy-15-methyl-7-thia-PGE1 methyl ester was given in the form of a solution in a phosphate buffer containing 0.9% of sodium chloride.
In the same way as in Referential Example 1, the compounds shown in Table 2 were examined for their inhibiting action on ulcer formation.

[2] = acute toxicity (iv) in mice; settings: mouse, in vivo

Row | SMILES | Inhibiting rate (ulcer formation) ([1]; dose 0.4 mg/kg, po) | Inhibiting rate (ulcer formation) ([1]; dose 1.0 mg/kg, po) | Inhibiting rate (ulcer formation) ([1]; dose 2.0 mg/kg, po) | other results
1 | CCCCCC(C)(O)/C=C/C1CCC(=O)C1SCCCCCC(=O)OC (racemic) [No. 101, dl-11-deoxy-15-methyl-7-thia-PGE1 methyl ester] | 66% | 99% | – | ED50 ([1]; Rattus norvegicus, po, peroral, indomethacin 20 mg/kg peroral, rats, read-out: ED50 (inhibition of ulcer formation induced by indomethacin)): 0.3 mg/kg; Inhibiting rate (ulcer formation) ([1]; dose 0.1 mg/kg, po): 16%; Ulcer formation (ulcer coefficient) Average value ± S.E.M. ([1]; dose 0.1 mg/kg, po, indomethacin 20 mg/kg peroral): 57.5 ± 14.1; Ulcer formation (ulcer coefficient) Average value ± S.E.M. ([1]; dose 0.4 mg/kg, po, indomethacin 20 mg/kg peroral, *** p 0.001): 23.3 ± 12.4; Ulcer formation (ulcer coefficient) Average value ± S.E.M. ([1]; dose 1.0 mg/kg, po, indomethacin 20 mg/kg peroral, *** p 0.001): 0.6 ± 0.05; inhibition of ulcer formation (in words) ([1]; rats, indomethacin-induced, peroral): markedly inhibited ulcer formation
2 | CCCCC[C@H](O)/C=C/[C@@H]1CCC(=O)[C@H]1SCCCCCC(=O)OC [No. 89, 11-Deoxy-7-thia-8,12-diepiprostaglandin E1 methyl ester] | 57% | 65% | – | LD50 ([2]; iv): 20 mg/kg
3 | CCCCCC(C)(O)CS[C@H]1C(=O)CC[C@@H]1SCCCCCC(=O)O (some centres unmarked) [No. 154, 7,13-dithia-15-hydroxy-15-methyl-11-oxo-prostanoic acid] | – | – | 80% | LD50 ([2]; acute toxicity (iv) in mice, read-out: LD50): 350 mg/kg
4 | CCCCCCCS[C@H]1C(O)CC[C@@H]1SCCCCCC(=O)OC (some centres unmarked) [No. 159, methyl 7,13-dithia-11-hydroxyprostanoate] | 15% | – | 78% | –
5 | CCCCCCCS[C@H]1CCC(O)[C@@H]1SCCCCCC(=O)OC (some centres unmarked) [No. 171, methyl 7,13-dithia-9-hydroxyprostanoate] | 12% | – | – | Inhibiting rate (ulcer formation) ([1]; dose 5.0 mg/kg, po): 75%
6 | CCCCCC(C)(O)CS[C@H]1CCC(O)[C@@H]1SCCCCCC(=O)OC (some centres unmarked) [No. 182, methyl 7,13-dithia-9,15-dihydroxy-15-methylprostanoate] | 25% | – | 80% | –
7 | COC(=O)CCCCCSC1CCC(O)C1SCCCc1ccccc1 (centres unmarked) [No. 190, methyl 7,13-dithia-11-hydroxy-16-phenyl-17,18,19,20-tetranor-prostanoate] | 46% | 57% | – | –
8 | CCCCC[C@H](O)/C=C/[C@@H]1[C@@H](C/C=C\CCCC(=O)O)[C@@H](O)C[C@H]1O [PGF2α, reference compound] | – | – | – | LD50 ([2]; iv, female, iv, mice, read-out: acute toxicity LD50): 56 mg/kg; LD50 ([2]; male, iv, mice, read-out: acute toxicity LD50): 60 mg/kg
